Values quoted from earlier work as cited in US20220288054A1, “COMPOSITIONS AND METHODS TO TREAT NON-ALCOHOLIC FATTY LIVER DISEASES (NAFLD)” (Coherus Biosciences, Inc., priority 2019, published 2022).

Experiments:
[1] = monotherapy, STELLAR-4 phase 3
diabetic rodents = details: administered to diabetic rodents

Molecule: Cc1cc(F)c(C(=O)Nc2cccc(-c3nncn3C(C)C)n2)cc1-n1cnc(C2CC2)c1 [selonsertib]
- primary endpoint [1]: failed to meet the primary endpoint

Molecule: CCCCOCCOc1ccc(-c2ccc3c(c2)/C=C(/C(=O)Nc2ccc([S@@+]([O-])Cc4cncn4CCC)cc2)CCCN3CC(C)C)cc1 [Cenicriviroc]
- safety profile (289 patients, 1 year of therapy): excellent safety profile
- liver fibrosis improvement (289 patients, after 1 year of therapy): consistently demonstrated liver fibrosis improvement
- antifibrotic activity (adult patients with NASH and fibrosis, phase 2b): provided antifibrotic activity
- tolerability (adult patients, oral, phase 2b): well-tolerated

B1: FGF21: amino acid sequence shown in FIG. 3 (SEQ ID NO: 3) (protein, listed as Homo sapiens)
chain: MDSDETGFEHSGLWVSVLAGLLLGACQAHPIPDSSPLLQFGGQVRQRYLYTDDAQQTEAHLEIREDGTVGGAADQSPESLLQLKALKPGVIQILGVKTSRFLCQRPDGALYGSLHFDPEACSFRELLLEDGYNVYQSEAHGLPLHLPGNKSPHRDPAPRGPARFLPLPGLPPALPEPPGILAPQPPDVGSSDPLSMVGPSQGRSPSYAS
- glucose uptake (mouse adipocytes): activates glucose uptake
- blood glucose and triglyceride levels (diabetic rodents): lower blood glucose and triglyceride levels
